Experimental findings from patent US20210238170A1, “5,5-Difluoro- and 5-Fluoro-5-Methyl-C-Glycoside Derivatives Useful As Dual SGLT1 / SGLT2 Modulators” (Janssen Pharmaceutica NV, priority 2018, published 2021) are described below.

Each structure is given as a SMILES string. pIC50: −log10 of the molar value. Where two headings read alike, the source gives them in different places.

The target in one assay is T1, human SGLT1 (Homo sapiens, UniProt P13866).
T1 construct: expressed in transfected cells
T1 sequence (P13866 1-664): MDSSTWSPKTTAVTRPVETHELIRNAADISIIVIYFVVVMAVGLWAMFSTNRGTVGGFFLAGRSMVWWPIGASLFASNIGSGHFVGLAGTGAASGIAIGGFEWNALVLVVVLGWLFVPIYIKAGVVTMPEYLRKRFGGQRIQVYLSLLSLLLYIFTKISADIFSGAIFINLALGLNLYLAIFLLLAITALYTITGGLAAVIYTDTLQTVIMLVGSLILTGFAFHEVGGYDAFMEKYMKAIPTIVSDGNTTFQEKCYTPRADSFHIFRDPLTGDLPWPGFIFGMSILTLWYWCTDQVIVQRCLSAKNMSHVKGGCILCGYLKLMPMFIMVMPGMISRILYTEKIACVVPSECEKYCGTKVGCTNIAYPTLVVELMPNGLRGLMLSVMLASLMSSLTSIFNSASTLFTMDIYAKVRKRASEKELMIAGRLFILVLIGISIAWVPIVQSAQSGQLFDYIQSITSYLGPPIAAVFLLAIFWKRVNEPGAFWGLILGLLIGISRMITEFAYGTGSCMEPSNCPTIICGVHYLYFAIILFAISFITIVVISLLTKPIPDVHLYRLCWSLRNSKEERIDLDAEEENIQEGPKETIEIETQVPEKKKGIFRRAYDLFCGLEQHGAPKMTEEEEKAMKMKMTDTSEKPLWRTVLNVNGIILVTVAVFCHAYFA
In words: SGLT1 in vitro assay: Na-dependent 14C-AMG uptake in CHO-K1 cells stably expressing human SGLT1. Format: cell-based. Conditions: for inhibition at 0.3 µM: read-out: SGLT1 % Inh @ 0.3 μM. The method, boiled down:
(§1)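 Sodium-dependent uptake of 14C-α-methyl-glucopyranoside ([…]) over 2 h at 37°C was counted by scintillation in stable human SGLT2- or SGLT1-CHO-K1 lines pretreated with 10 mM Na-butyrate. Compounds at 0.001–10 μM were preincubated for 10 min in pH 7.4 buffer with 137 mM NaCl; output is %-inhibition or IC50.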

The target in the next assay is T2, human SGLT2 (Homo sapiens, UniProt P31639).
T2 construct: expressed in transfected cells
T2 sequence (P31639 1-672): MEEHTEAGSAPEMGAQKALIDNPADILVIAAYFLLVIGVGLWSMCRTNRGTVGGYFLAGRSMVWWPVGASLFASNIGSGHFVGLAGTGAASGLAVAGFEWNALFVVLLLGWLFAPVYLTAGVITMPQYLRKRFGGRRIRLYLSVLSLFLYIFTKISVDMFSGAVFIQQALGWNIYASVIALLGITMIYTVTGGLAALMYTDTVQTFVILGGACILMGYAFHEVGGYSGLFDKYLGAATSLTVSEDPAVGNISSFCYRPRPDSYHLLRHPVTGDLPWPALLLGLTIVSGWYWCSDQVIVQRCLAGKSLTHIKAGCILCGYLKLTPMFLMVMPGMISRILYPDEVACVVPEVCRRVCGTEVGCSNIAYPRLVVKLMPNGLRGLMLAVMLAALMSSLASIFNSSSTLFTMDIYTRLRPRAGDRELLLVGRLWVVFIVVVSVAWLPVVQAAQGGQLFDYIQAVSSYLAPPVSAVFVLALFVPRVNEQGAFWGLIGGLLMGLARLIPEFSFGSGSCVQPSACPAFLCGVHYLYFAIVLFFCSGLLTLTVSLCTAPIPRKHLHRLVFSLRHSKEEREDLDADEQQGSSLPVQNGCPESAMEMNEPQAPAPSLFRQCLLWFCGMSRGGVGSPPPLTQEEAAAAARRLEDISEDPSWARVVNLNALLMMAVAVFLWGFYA
As to the kind of experiment: SGLT2 in vitro assay: Na-dependent 14C-AMG uptake in CHO-K1 cells stably expressing human SGLT2. In kind it is cell-based. Conditions: for inhibition at 0.3 µM: read-out: SGLT2 % Inh @ 0.3 μM. The method, boiled down:
as §1

Setting [1] is: @ 0.3 μM, CHO-K1 cells stably expressing human SGLT1, 14C-AMG uptake.
Where [2] appears, read: CHO-K1 cells stably expressing human SGLT1, 14C-AMG uptake, compounds of formula (I) where R0 is fluoro.
[3] abbreviates: @ 0.3 μM, CHO-K1 cells stably expressing human SGLT2, 14C-AMG uptake.
Setting [4] is: CHO-K1 cells stably expressing human SGLT2, 14C-AMG uptake, compounds of formula (I) where R0 is fluoro.
The mark [5] stands for this setting: 0.3 μM, CHO-K1 cells expressing human SGLT1.
Where [6] appears, read: CHO-K1 cells expressing human SGLT1, 14C-AMG uptake.
Setting [7] is: 0.3 μM, CHO-K1 cells expressing human SGLT2.
Where [8] appears, read: CHO-K1 cells expressing human SGLT2, 14C-AMG uptake.

As to `CCc1cc(O)c([C@@H]2O[C@H](CO)C(F)(F)[C@H](O)[C@H]2O)cc1Cc1ccc(C2CC2)cc1` [Compound 150], the values for the inhibition at 0.3 µM at human SGLT1 (setting [1]) and at human SGLT2 (setting [3]) were 84.4% and 72.5%, respectively. Besides, the values for the pIC50 against human SGLT1 (setting [2]) and on human SGLT2 (setting [4]) were 7.14 and 8.51, respectively.
On to `CCc1csc(Cc2cc([C@@H]3O[C@H](CO)C(F)(F)[C@H](O)[C@H]3O)c(O)cc2C)c1` [Compound 182], for which the inhibition at 0.3 µM came out at 60.2% at human SGLT1 (setting [1]) and 83.6% on human SGLT2 (setting [3]). Also, the pIC50 is 7.40 against human SGLT1 (setting [2]) and 8.89 against human SGLT2 (setting [4]).
In the case of `Cc1cc(O)c([C@@H]2O[C@H](CO)C(F)(F)[C@H](O)[C@H]2O)cc1Cc1ccc2c(c1)OCCO2` [Compound 56, (2S,3R,4R,6R)-2-(5-((2,3-dihydrobenzo[b][1,4]dioxin-6-yl)methyl)-2-hydroxy-4-methylphenyl)-5,5-difluoro-6-(hydroxymethyl)tetrahydro-2H-pyran-3,4-diol], the inhibition at 0.3 µM stood at 78.3% on human SGLT1 (setting [1]) and 93% at human SGLT2 (setting [3]). In addition, the negative logarithm of the IC50 (pIC50) was 7.19 at human SGLT1 (setting [2]) and 8.70 at human SGLT2 (setting [4]).
Taken in the same sequence, the figures for `COc1cc(O)c([C@@H]2O[C@H](CO)C(F)(F)[C@H](O)[C@H]2O)cc1Cc1ccc(C2CC2)cc1` [Compound 140] were 81.1%, 85.5%, 7.14 and 8.72.
With `CCc1cc(O)c([C@@H]2O[C@H](CO)C(F)(F)[C@H](O)[C@H]2O)cc1Cc1ccc(OCF)cc1` [Compound 148], the inhibition at 0.3 µM was 83% on human SGLT1 (setting [1]) and 82.4% at human SGLT2 (setting [3]). Moreover, the pIC50 was 7.28 at human SGLT1 (setting [2]) and 8.82 against human SGLT2 (setting [4]).
On to `C[C@]1(F)[C@H](O)[C@@H](O)[C@H](c2cc(Cc3cc4ccccc4s3)c(Cl)cc2O)O[C@@H]1CO` [Compound 10, (2S,3R,4R,5S,6R)-2-[5-(benzothiophen-2-ylmethyl)-4-chloro-2-hydroxy-phenyl]-5-fluoro-6-(hydroxymethyl)-5-methyl-tetrahydropyran-3,4-diol], for which the inhibition at 0.3 µM at human SGLT1 (setting [5]) stood at 41.7%; on human SGLT2 (setting [7]), 87.8%. Also, the pIC50 is 6.54 at human SGLT1 (setting [6]) and 7.99 on human SGLT2 (setting [8]).
`COc1cc(OC)c([C@@H]2O[C@H](CO)C(F)(F)[C@H](O)[C@H]2O)cc1Cc1cc2c(s1)CCN(C(C)=O)C2` [Compound 77]: the “SGLT1 % Inh @ 0.3 μM” value at human SGLT1 (setting [1]) was 22.6%. At human SGLT2 (setting [3]), the “SGLT2 % Inh @ 0.3 μM” value is 51.4%.
Taken in the same sequence, the figures for `CCc1cc(OC)c([C@@H]2O[C@H](CO)C(F)(F)[C@H](O)[C@H]2O)cc1Cc1ccc(OC(F)(F)F)cc1` [Compound 109] were 27.4% and 70.5%.
In the case of `OC[C@H]1O[C@@H](c2cc(Cc3ccc4c(c3)OCCO4)c3c(c2O)OCC3)[C@H](O)[C@@H](O)C1(F)F` [Compound 187], the inhibition at 0.3 µM at human SGLT1 (setting [1]) worked out at 52.7%; on human SGLT2 (setting [3]) it was 74.6%. Moreover, the pIC50 against human SGLT1 (setting [2]) was 6.80; on human SGLT2 (setting [4]) it was 7.44.
As to `OC[C@H]1O[C@@H](c2cc(Cc3ccc4c(c3)SCCO4)c(Cl)c3c2OCC3)[C@H](O)[C@@H](O)C1(F)F` [Compound 132], the results for the inhibition at 0.3 µM at human SGLT1 (setting [1]) and at human SGLT2 (setting [3]) were 40.7% and 83.9%, respectively. Also, the pIC50 against human SGLT1 (setting [2]) is 6.37; against human SGLT2 (setting [4]), 8.35.
On to `Cc1cc(O)c([C@@H]2O[C@H](CO)C(F)(F)[C@H](O)[C@H]2O)cc1Cc1cc2c(s1)CCN(C(=O)c1nccs1)C2` [Compound 80], for which, on human SGLT1 (setting [1]), the “SGLT1 % Inh @ 0.3 μM” value was determined as 31.1%. Further, the “SGLT2 % Inh @ 0.3 μM” value on human SGLT2 (setting [3]) is recorded as 82.1%.
Consider `CCc1ccc(Cc2cc([C@@H]3O[C@H](CO)C(F)(F)[C@H](O)[C@H]3O)c(OC)c3c2OCC3)cc1` [Compound 38], for which, on human SGLT1 (setting [1]), the “SGLT1 % Inh @ 0.3 μM” value is on record as 47.4%. Also, the “SGLT2 % Inh @ 0.3 μM” value at human SGLT2 (setting [3]) was determined as 65.9%.
As for `Cc1cc(O)c([C@@H]2O[C@H](CO)[C@@](C)(F)[C@H](O)[C@H]2O)cc1Cc1ccc(OCF)cc1` (stereo in doubt) [Compound 23, (2S,3R,4R,5S,6R)-5-fluoro-2-(5-(4-(fluoromethoxy)benzyl)-2-hydroxy-4-methylphenyl)-6-(hydroxymethyl)-5-methyl-tetrahydro-2H-pyran-3,4-diol], the inhibition at 0.3 µM on human SGLT1 (setting [5]) stood at 54%; on human SGLT2 (setting [7]), 88%. Also, the negative-log IC50 (pIC50) at human SGLT1 (setting [6]) was 6.50; at human SGLT2 (setting [8]) it was 8.55.
`COc1cc(C)c(Cc2cc3cc(F)ccc3s2)cc1[C@@H]1O[C@H](CO)C(F)(F)[C@H](O)[C@H]1O` [Compound 53]: the “SGLT1 % Inh @ 0.3 μM” value on human SGLT1 (setting [1]) is 0.0%. The “SGLT2 % Inh @ 0.3 μM” value at human SGLT2 (setting [3]) is given as 87.1%.
For `COc1ccc(Cc2cc([C@@H]3O[C@H](CO)C(F)(F)[C@H](O)[C@H]3O)c(O)cc2C)cc1` [Compound 108, (2S,3R,4R,6R)-5,5-difluoro-2-[2-hydroxy-5-[(4-methoxyphenyl)methyl]-4-methyl-phenyl]-6-(hydroxymethyl)tetrahydropyran-3,4-diol], the results for the inhibition at 0.3 µM on human SGLT1 (setting [1]) and at human SGLT2 (setting [3]) were 66.6% and 94.4%, respectively. The pIC50 is 7.15 on human SGLT1 (setting [2]) and 8.80 at human SGLT2 (setting [4]).
On to `OC[C@H]1O[C@@H](c2cc(Cc3ccc4c(c3)OCC4)c(Cl)cc2O)[C@H](O)[C@@H](O)C1(F)F` [Compound 111, (2S,3R,4R,6R)-2-(4-chloro-5-((2,3-dihydrobenzofuran-6-yl)methyl)-2-hydroxyphenyl)-5,5-difluoro-6-(hydroxymethyl)-tetrahydro-2H-pyran-3,4-diol], for which the values for the inhibition at 0.3 µM at human SGLT1 (setting [1]) and on human SGLT2 (setting [3]) were 84% and 85.2%, respectively. The negative logarithm of the IC50 (pIC50) against human SGLT1 (setting [2]) was 7.24; at human SGLT2 (setting [4]) it was 9.05.
Turning to `Cc1cc(O)c([C@@H]2O[C@H](CO)[C@@](C)(F)[C@H](O)[C@H]2O)cc1Cc1cc2ccccc2s1` [Compound 1], on human SGLT1 (setting [5]), the inhibition at 0.3 µM worked out at 57.6%. Besides, the results for the negative-log IC50 (pIC50) on human SGLT1 (setting [6]) and on human SGLT2 (setting [8]) were 6.70 and 7.71, respectively.
On to `Cc1cc(O)c([C@@H]2O[C@H](CO)C(F)(F)[C@H](O)[C@H]2O)cc1Cc1ccc(C2CC2)cc1` [Compound 124, (2S,3R,4R,6R)-2-(5-(4-cyclopropylbenzyl)-2-hydroxy-4-methylphenyl)-5,5-difluoro-6-(hydroxymethyl)-tetrahydro-2H-pyran-3,4-diol], for which the inhibition at 0.3 µM at human SGLT1 (setting [1]) is 75.5%; at human SGLT2 (setting [3]) it was 90.3%. Besides, the pIC50 was 6.80 against human SGLT1 (setting [2]) and 9.00 at human SGLT2 (setting [4]).
Turning to `OC[C@H]1O[C@@H](c2cc(Cc3ccc4c(c3)CCCO4)c(Cl)c3c2OCC3)[C@H](O)[C@@H](O)C1(F)F` [Compound 126], the “SGLT1 % Inh @ 0.3 μM” value at human SGLT1 (setting [1]) worked out at 28.7%. At human SGLT2 (setting [3]), the “SGLT2 % Inh @ 0.3 μM” value amounted to 87.1%.
As to `CCc1cc(O)c([C@@H]2O[C@H](CO)[C@@](C)(F)[C@H](O)[C@H]2O)cc1Cc1ccc(OC)cc1` [Compound 16, (2S,3R,4R,5S,6R)-2-[4-ethyl-2-hydroxy-5-[(4-methoxyphenyl)methyl]phenyl]-5-fluoro-6-(hydroxymethyl)-5-methyl-tetrahydropyran-3,4-diol], the inhibition at 0.3 µM was 53% at human SGLT1 (setting [5]) and 85.5% at human SGLT2 (setting [7]). In addition, the pIC50 was 6.82 on human SGLT1 (setting [6]) and 8.70 on human SGLT2 (setting [8]).

A word on the pIC50: it is the IC50 on a negative log10 scale, so that one unit is a factor of ten.
